Data as given in patent US20190231785A1, “PHOSPHODIESTERASE INHIBITOR TREATMENT” (Cyrano Therapeutics, Inc., priority 2012, published 2019).

Tests used:
cAMP = assay: Parotid saliva cAMP before and after oral theophylline (Example 2); format: in vivo, human; settings: for parotid saliva cAMP: mean ± SEM
Description: (§1) Parotid saliva was collected from each patient by application of a Lashley cup over Stensen's duct with lingual stimulation by placement of concentrated lemon juice. Saliva was collected in plastic tubes and stored at −20° C. until assayed. cAMP and cGMP were measured in saliva by a sensitive 96 plate spectrophotometric assay (R&D Systems, Minneapolis, Minn.).
(§2) All patients were placed in a fixed design open label clinical trial with treatment with oral theophylline. Treatment consisted of fixed treatment periods of two-eight months with sequential doses of the drug at 200 mg, 400 mg and 600 mg. At termination of each of these intervals, patients returned to study site for reevaluation. At the end of each interval subjective responses to treatment were measured with a modification of the 0-100 scale previously used (vs). Subjective responses to treatment were graded on a sliding scale from −100-0-+100 with patients recording improvement (+0-+100), no improvement (0) or worsening (0-−100) of their overall smell function. If overall smell function improved ≥5% they were considered to improve clinically (1). If smell function improved <5% they were considered not to improve (1). At the end of each interval subjective measurements of smell function, measurements of DT, RT, ME and H and measurements of parotid saliva for levels of cAMP and cGMP were obtained. In addition, blood plasma was obtained by venipuncture, placed in ice into zinc free tubes which contained 100 mg zinc free heparin, centrifuged at 3000 rpm for 10-20 min, the plasma transferred to plastic PCR tubes and stored at −20° C. until assayed. Theophylline was assayed by a fluorescence polarization assay (Abbott, Chicago, Ill.), as previously described.
(§3) Data for the cyclic nucleotides from these 31 patients was not analyzed until the entire study of the 312 patients in Example 1 was assembled and analyzed in its entirety. After completion of these analyses, all data for parotid saliva cAMP and cGMP from all patients in whom salivary cAMP and cGMP were obtained were assembled. Levels of salivary cyclic nucleotides varied widely. Initially, without external criteria, there was no way to understand these disparate data. […] In a similar manner, measurements of each patient's plasma theophylline level at each dosage of theophylline (at 200 mg, 400 mg, 600 mg of theophylline) were categorized. The two patient groups were also analyzed post hoc with respect to type of smell loss and etiology of smell loss.

cGMP = assay: Parotid saliva cGMP before and after oral theophylline (Example 2); format: in vivo, human; settings: mean ± SEM
Description: as §1, §2, §3

[1] = test system: patients with hyposmia and hypogeusia; assay: Subjective changes in smell and taste function by questionnaire, scale 0 to 100 (Example 8); format: in vivo, human; settings: oral 200 to 800 mg/d; of 10 patients
Description: Subjective changes in smell and taste function under each study condition were measured by questionnaire before measurements of smell or taste function. Responses were graded on a scale from 0 to 100, with 0 reflecting no subjective response in overall sensory function; 100, return to normal sensory function; and values between 0 and 100 intermediate responses. Overall sensory function was defined as the ability to smell all odors and identify all tastants, although response intensity varied.
Values for the oral trial were taken from the last measurements made before discontinuation of oral drug treatment and before initiation of the intranasal trial. This period varied from 2 to 12 months after oral treatment initiation and reflected the maximal improvement in sensory function each patient experienced.

asthmatic patients = assay: sGaw after dry powder inhalation, dose escalating single blind study (Examples 5 and 6); settings: 2 mg theophylline
Description: (§4) To test this theory, asthmatic patients are enrolled in a dose escalating single blind study. On arrival to the clinic, subjects are allowed to rest for 20 minutes before baseline measurements of FEV1 (six recordings) and sGaw (five recordings) are made. Subjects receive a dry powder dispenser loaded with a dose of 2 mg theophylline or a dry powder carrier. […] After each inhalation, measurements of sGaw are made at 1, 3, 5, 10, 15, 20, 25, and 30 minutes.
On completion of the last recording, subjects inhale a 200 μg dose of salbutamol from a metered inhaler and a further measurement of sGaw is made after 15 minutes. Subjects are also monitored for coughing and are questioned about the taste of the drug.
as §4, with “Asthmatic patients” for “To test this theory, asthmatic patients”, “of 1” for “of 2”, “mg IBMX formulated as a dry powder” for “mg theophylline”
On completion of the last recording, subjects inhale a 200 μg dose of salbutamol from a metered inhaler and a further measurement of sGaw mad after 15 minutes. Subjects are also be monitored for coughing and are questioned about the taste of the drug.

[2] = asthma and COPD; cited from earlier work
[3] = patients with unimproved smell function, oral 200 mg (9 patients)

What does the source list for `Cn1c(=O)c2[nH]cnc2n(C)c1=O` [theophylline]?
increase of saliva cAMP above baseline (cAMP; improved patients, oral 200 mg, not significant): 10%; increase of saliva cAMP over baseline (cAMP; improved patients, oral 400 mg, not statistically significant): 40%; increase of saliva cAMP above initial values (cAMP; improved patients, oral 600 mg, significant): 67%; parotid saliva cAMP (cAMP; patients with improved smell function, oral 200 mg (16 patients)): 0.96 ± 0.13 pmol/mL; parotid saliva cAMP (cAMP; [3]): 0.78 ± 0.26 pmol/mL; parotid saliva cAMP (cAMP; patients with unimproved smell function, oral 400 mg (5 patients)): 0.95 ± 0.26 pmol/mL; parotid saliva cAMP (cAMP; patients with unimproved smell function, oral 600 mg (9 patients)): 0.56 ± 0.21 pmol/mL; parotid saliva cGMP (cGMP; patients with improved smell function, oral 200 mg (15 patients)): 0.08 ± 0.016 pmol/mL; parotid saliva cGMP (cGMP; [3]): 0.07 ± 0.018 pmol/mL; parotid saliva cGMP (cGMP; patients with unimproved smell function, oral 400 mg (4 patients)): 0.05 ± 0.014 pmol/mL; parotid saliva cGMP (cGMP; patients with unimproved smell function, oral 600 mg (5 patients)): 0.04 ± 0.07 pmol/mL; patients reporting no improvement [1]: 4 patients; increase in sGaw compared with 200 μg salbutamol (asthmatic patients): comparable to that produced by salbutamol; sGaw above the baseline measurement after 30 minutes (asthmatic patients): 20%; taste and coughing of the dry powder formulation (asthmatic patients): without the unpleasant taste or the induction of coughing; time until sGaw baseline is reached (asthmatic patients): 1 h; concentrations at which anti-inflammatory effects are seen [2]: less than 10 mg/L
